Reference: patent US9315503B2, “Kinase inhibitors” (CHIESI FARMACEUTICI S.p.A., priority 2011, dated 2016)

What was measured:
p38alpha = target: T1, p38alpha (Homo sapiens, UniProt Q16539); test: P38Alpha enzyme inhibition assay (Alphascreen kinase activity assay); type: biochemical; details: 100 pM p38alpha, 250 μM ATP, 2 hours pre-incubation at 25° C., read-out: p38α inhibition (IC50 values)
T1 construct: purchased Invitrogen PV3304
How it was run: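 AlphaScreen read-out: after an EDTA stop, an anti-phospho-ATF2 antibody with Protein A acceptor and donor beads measured substrate phosphorylation. Compounds sat 2 h at 25°C with 100 pM p38α and 0.3 µg/ml ATF-2 fusion protein (pH 7.5, 1% DMSO) before 250 µM ATP was added for 1 h. IC50 from dose-response.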

[1] = system: LPS-stimulated TNFα release from PBMCs; test: LPS-stimulated PBMC TNFα release assay; type: cell-based; details: inhibition of TNFα release, human PBMCs, LPS 10 ng/ml, 18 h, ELISA, read-out: p38α inhibition (IC50 values)
Experimental: LPS-Stimulated PBMC TNFα Release Assay.
Peripheral Blood Mononuclear Cells (PBMCs) were isolated from healthy human volunteer blood using a standard density gradient centrifugation technique. Citrated blood was placed onto Histopaque™ and centrifuged. The PBMCs were removed from the density gradient interface and washed in phosphate buffered saline (PBS). The PBMCs were suspended in RPMI 1640 medium (without serum), dispensed into a 96-well plate and incubated at 37° C. for 3 h in a humidified incubator. After incubation, the medium was replaced (with medium containing 1% foetal bovine serum) and the plate incubated at 37° C., for 1 h, in the presence of test compound or the appropriate vehicle. LPS (10 ng/ml), or an appropriate vehicle control, was then added to the cells and the plate returned to the incubator for 18 h. Cell-free supernatants were removed and assayed for TNFα levels using an ELISA kit from R&D Systems.
A dose response curve to each test compound was performed and the effect of compound in each experiment was expressed as a percentage inhibition of the control TNFα release. Dose response curves were plotted and compound potency (IC50) was determined. Compounds were tested in at least three separate experiments.

T1 sequence (Q16539 whole entry): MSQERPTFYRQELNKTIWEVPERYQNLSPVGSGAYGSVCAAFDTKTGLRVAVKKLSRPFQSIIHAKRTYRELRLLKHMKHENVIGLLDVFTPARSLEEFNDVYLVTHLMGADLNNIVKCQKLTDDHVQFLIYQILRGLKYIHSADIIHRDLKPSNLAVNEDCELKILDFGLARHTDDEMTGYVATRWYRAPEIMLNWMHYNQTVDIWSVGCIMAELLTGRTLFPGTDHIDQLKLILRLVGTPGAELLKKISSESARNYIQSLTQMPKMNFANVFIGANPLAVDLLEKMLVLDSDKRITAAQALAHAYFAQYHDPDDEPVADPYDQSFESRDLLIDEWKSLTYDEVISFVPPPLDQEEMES

CN1CCC[C@H]1c1nnc2ccc(O[C@@H]3CC[C@H](NC(=O)Nc4cc(C(C)(C)C)nn4-c4ccc(CO)cc4)c4ccccc43)cn12 [Example 33, 1-[5-tert-Butyl-2-(4-hydroxymethyl-phenyl)-2H-pyrazol-3-yl]-3-{(1S,4R)-4-[3-((S)-1-methyl-pyrrolidin-2-yl)-[1,2,4]triazolo[4,3-a]pyridin-6-yloxy]-1,2,3,4-tetrahydro-naphthalen-1-yl}urea]
IC50 (p38alpha): < 10 nM
IC50 [1]: < 10 nM

CC(C)(C)c1cc(NC(=O)N[C@H]2CC[C@@H](Oc3ccc4nnc(N5CCCCC5)n4c3)c3ccccc32)n(-c2ccc(CO)cc2)n1 [Example 34, 1-[5-tert-Butyl-2-(4-hydroxymethyl-phenyl)-2H-pyrazol-3-yl]-3-[(1S,4R)-4-(3-piperidin-1-yl-[1,2,4]triazolo[4,3-a]pyridin-6-yloxy)-1,2,3,4-tetrahydro-naphthalen-1-yl]-urea]
IC50 (p38alpha): < 10 nM
IC50 [1]: < 10 nM

CN1CCC[C@H]1c1nnc2ccc(O[C@@H]3CC[C@H](NC(=O)Nc4cc(C(C)(C)C)nn4-c4cccc(SCCO)c4)c4ccccc43)cn12 [Example 35, 1-{5-tert-Butyl-2-[3-(2-hydroxy-ethylsulfanyl)-phenyl]-2H-pyrazol-3-yl}-3-{(1S,4R)-4-[3-((S)-1-methyl-pyrrolidin-2-yl)-[1,2,4]triazolo[4,3-a]pyridin-6-yloxy]-1,2,3,4-tetrahydro-naphthalen-1-yl}-urea]
IC50 (p38alpha): < 10 nM
IC50 [1]: < 10 nM

Cc1ccc(-n2nc(C(C)(C)CO)cc2NC(=O)N[C@H]2CC[C@@H](Oc3ccc4nnc(N5CCCCC5)n4c3)c3ccccc32)cc1 [Example 36, 1-[5-(2-Hydroxy-1,1-dimethyl-ethyl)-2-p-tolyl-2H-pyrazol-3-yl]-3-[(1S,4R)-4-(3-piperidin-1-yl-[1,2,4]triazolo[4,3-a]pyridin-6-yloxy)-1,2,3,4-tetrahydro-naphthalen-1-yl]-urea]
IC50 (p38alpha): < 10 nM
IC50 [1]: < 10 nM

CN1CCC[C@H]1c1nnc2ccc(O[C@H]3C[C@H](NC(=O)Nc4cc(C(C)(C)C)nn4-c4ccc(CO)cc4)c4ccccc43)cn12 [Example 37, 1-[5-tert-Butyl-2-(4-hydroxymethyl-phenyl)-2H-pyrazol-3-yl]-3-{(1S,3S)-3-[3-((S)-1-methyl-pyrrolidin-2-yl)-[1,2,4]triazolo[4,3-a]pyridin-6-yloxy]-indan-1-yl}-urea]
IC50 (p38alpha): < 10 nM
IC50 [1]: < 10 nM

Cc1ccc(-n2nc(C(C)(C)C)cc2NC(=O)N[C@H]2CC[C@@H](Oc3ccc4nnc(N5CC[C@@H](O)C5)n4c3)c3ccccc32)cc1 [Example 38, 1-(5-tert-Butyl-2-p-tolyl-2H-pyrazol-3-yl)-3-{(1S,4R)-4-[3-((R)-3-hydroxy-pyrrolidin-1-yl)-[1,2,4]triazolo[4,3-a]pyridin-6-yloxy]-1,2,3,4-tetrahydro-naphthalen-1-yl}-urea]
IC50 (p38alpha): < 10 nM
IC50 [1]: < 10 nM

CC(C)(C)c1cc(NC(=O)N[C@H]2CC[C@@H](Oc3ccc4nnc(N5CCCCC5)n4c3)c3ccccc32)n(-c2cccc(OCCO)c2)n1 [Example 39, 1-{5-tert-Butyl-2-[3-(2-hydroxy-ethoxy)-phenyl]-2H-pyrazol-3-yl}-3-[(1S,4R)-4-(3-piperidin-1-yl-[1,2,4]triazolo[4,3-a]pyridin-6-yloxy)-1,2,3,4-tetrahydro-naphthalen-1-yl]-urea]
IC50 (p38alpha): < 10 nM
IC50 [1]: < 10 nM

CN(C)CCOc1cccc(-n2nc(C(C)(C)C)cc2NC(=O)N[C@H]2CC[C@@H](Oc3ccc4nnc(N5CCCCC5)n4c3)c3ccccc32)c1 [Example 40, 1-{5-tert-Butyl-2-[3-(2-dimethylamino-ethoxy)-phenyl]-2H-pyrazol-3-yl}-3-[(1S,4R)-4-(3-piperidin-1-yl-[1,2,4]triazolo[4,3-a]pyridin-6-yloxy)-1,2,3,4-tetrahydro-naphthalen-1-yl]-urea]
IC50 (p38alpha): < 10 nM
IC50 [1]: < 10 nM

CN1CCN(Cc2cccc(-n3nc(C(C)(C)C)cc3NC(=O)N[C@H]3CC[C@@H](Oc4ccc5nnc(N6CCCCC6)n5c4)c4ccccc43)c2)CC1 [Example 41, 1-{5-tert-Butyl-2-[3-(4-methyl-piperazin-1-ylmethyl)-phenyl]-2H-pyrazol-3-yl}-3-[(1S,4R)-4-(3-piperidin-1-yl-[1,2,4]triazolo[4,3-a]pyridin-6-yloxy)-1,2,3,4-tetrahydro-naphthalen-1-yl]-urea]
IC50 (p38alpha): < 10 nM
IC50 [1]: < 10 nM

CN1CCC[C@H]1c1nnc2ccc(O[C@@H]3CC[C@H](NC(=O)Nc4cc(C(C)(C)C)nn4-c4cccc(OCCO)c4)c4ccccc43)cn12 [Example 42, 1-{5-tert-Butyl-2-[3-(2-hydroxy-ethoxy)-phenyl]-2H-pyrazol-3-yl}-3-{(1S,4R)-4-[3-((S)-1-methyl-pyrrolidin-2-yl)-[1,2,4]triazolo[4,3-a]pyridin-6-yloxy]-1,2,3,4-tetrahydro-naphthalen-1-yl}-urea]
IC50 (p38alpha): < 10 nM
IC50 [1]: < 10 nM

Cc1ccc(-n2nc(C(C)(C)C)cc2NC(=O)N[C@H]2CC[C@@H](Oc3ccc4nnc(N(C)CCN(C)C)n4c3)c3ccccc32)cc1 [Example 43, 1-(5-tert-Butyl-2-p-tolyl-2H-pyrazol-3-yl)-3-((1S,4R)-4-{3-[(2-dimethylamino-ethyl)-methyl-amino]-[1,2,4]triazolo[4,3-a]pyridin-6-yloxy}-1,2,3,4-tetrahydro-naphthalen-1-yl)-urea]
IC50 (p38alpha): < 10 nM
IC50 [1]: < 10 nM

CC(C)(C)c1cc(NC(=O)N[C@H]2CC[C@@H](Oc3ccc4nnc(N5CCCCC5)n4c3)c3ccccc32)n(-c2cccc(CN3CCCCC3)c2)n1 [Example 44, 1-[5-tert-Butyl-2-(3-piperidin-1-ylmethyl-phenyl)-2H-pyrazol-3-yl]-3-[(1S,4R)-4-(3-piperidin-1-yl-[1,2,4]triazolo[4,3-a]pyridin-6-yloxy)-1,2,3,4-tetrahydro-naphthalen-1-yl]-urea]
IC50 (p38alpha): < 10 nM
IC50 [1]: < 10 nM

Cc1ccc(-n2nc(C(C)(C)C)cc2NC(=O)N[C@H]2CC[C@@H](Oc3ccc4nnc([C@]5(C)CCCN5C)n4c3)c3ccccc32)cc1 [Example 47, 1-(5-tert-Butyl-2-p-tolyl-2H-pyrazol-3-yl)-3-{(1S,4R)-4-[3-((S)-1,2-dimethyl-pyrrolidin-2-yl)-[1,2,4]triazolo[4,3-a]pyridin-6-yloxy]-1,2,3,4-tetrahydro-naphthalen-1-yl}-urea]
IC50 (p38alpha): < 10 nM
IC50 [1]: < 10 nM

CC(C)(C)c1cc(NC(=O)N[C@H]2CC[C@@H](Oc3ccc4nnc(N5CCCCC5)n4c3)c3ccccc32)n(-c2cccc(COCCO)c2)n1 [Example 48, 1-{5-tert-Butyl-2-[3-(2-hydroxy-ethoxymethyl)-phenyl]-2H-pyrazol-3-yl}-3-[(1S,4R)-4-(3-piperidin-1-yl-[1,2,4]triazolo[4,3-a]pyridin-6-yloxy)-1,2,3,4-tetrahydro-naphthalen-1-yl]-urea]
IC50 (p38alpha): < 10 nM
IC50 [1]: < 10 nM

Cc1ccc(-n2nc(C(C)(C)C)cc2NC(=O)N[C@H]2CC[C@@H](Oc3ccc4nnc(N5CCCOCC5)n4c3)c3ccccc32)cc1 [Example 49, 1-(5-tert-Butyl-2-p-tolyl-2H-pyrazol-3-yl)-3-[(1S,4R)-4-(3-[1,4]oxazepan-4-yl-[1,2,4]triazolo[4,3-a]pyridin-6-yloxy)-1,2,3,4-tetrahydro-naphthalen-1-yl]-urea]
IC50 (p38alpha): < 10 nM
IC50 [1]: < 10 nM
